19 compounds from paper PMC6446940 (ChemMedChem, 2018) can be followed below.

A short description of data set [1]: Cytotoxicity. The following applies: human, TZM-bl cells, TZMb-l CC50, TZM-bl cells, 3 days, MTS; mean ± SD, n=3. In kind it is cell-based.
The test system of data set [2] is pseudovirus HIV-1HXB2. As to the kind of experiment: Single-cycle infection assay in TZM-bl cells. The note with it: for antiviral activity (in words): SAR discussion of Table 1.
Data set [3] is described as follows: Cytotoxicity. It counts as cell-based, human. The following applies: human, MT-2 cells, MT-2 CC50, MT-2 cells, MTS; mean ± SD, n=3.
Data set [4] has as its system TZM-bl cells. Nature of the data set: Cytotoxicity. It counts as cell-based. The note with it: for CC50: read-out: TZMb-l CC50, TZM-bl cells, 3 days, MTS, mean ± SD, n=3; for cytotoxicity higher compared with the parent compounds: compared with NBD-14122 / NBD-14123; for cytotoxicity became higher: di-fluoro at position 2 of 1,3-benzodioxole, versus non-fluorinated compounds.

For data set [5], the system named is HIV-1IIIB. Nature of the data set: Multi-cycle infection assay in MT-2 cells. In kind it is cell-based. The following applies: read-out: MT-2 IC50, p24, mean ± SD, n=3.
For data set [6], the system named is MT-2 cells. Nature of the data set: Cytotoxicity. It counts as cell-based, human. The following applies: read-out: MT-2 CC50, MTS, mean ± SD, n=3.
For data set [7], the target named is HIV-1 Reverse Transcriptase (RT) (Human immunodeficiency virus type 1 group M subtype B, UniProt P04585). Nature of the data set: biochemical. In kind it is biochemical.

In general, CC50 refers to the concentration giving 50% cytotoxicity. In data set [1], `CC1(C)Oc2ccc(-c3ccc(C(=O)NC(CN)c4ncc(CO)s4)[nH]3)cc2O1` (stereo not drawn) [NBD-14133, N-(2-amino-1-(5-(hydroxymethyl)thiazol-2-yl)ethyl)-5-(2,2-dimethylbenzo[d][1,3]dioxol-5-yl)-1H-pyrrole-2-carboxamide] gave a CC50 at 3 days of 64 ± 1.2 µM. Moreover, in data set [2], the “antiviral activity (in words)” value is given as “lost their antiviral potency”. For the same compound, in data set [3], the CC50 at 4 days stood at 96.5 ± 1.2 µM.

Usually IC50 stands for the concentration that inhibits the measured activity by half. Regarding `NCC(NC(=O)c1ccc(-c2ccc3c(c2)OCO3)[nH]1)c1ncc(CO)s1` (stereo not drawn) [NBD-14122, N-(2-amino-1-(5-(hydroxymethyl)thiazol-2-yl)ethyl)-5-(benzo[d][1,3]dioxol-5-yl)-1H-pyrrole-2-carboxamide], the values for the CC50 in data set [4] and in data set [6] were 154.4 ± 1.5 µM and 183 ± 3 µM, respectively. Moreover, the IC50 in data set [5] amounted to 5.1 ± 0.4 µM.

Regarding `Cc1nc(C(NC(=O)c2ccc(-c3ccc4c(c3)OCO4)[nH]2)C(C)(C)N)sc1CO` (stereo not drawn) [NBD-14117, N-(2-amino-1-(5-(hydroxymethyl)-4-methylthiazol-2-yl)-2-methylpropyl)-5-(benzo[d][1,3]dioxol-5-yl)-1H-pyrrole-2-carboxamide], the CC50 is 66.9 ± 1.4 µM in data set [4] and 98 ± 1.5 µM in data set [6]. Moreover, the IC50 in data set [5] was 2.5 ± 1 µM.

Consider `CNCC(NC(=O)c1ccc(-c2ccc3c(c2)OCO3)[nH]1)c1ncc(CO)s1` (stereo not drawn) [NBD-14140, 5-(benzo[d][1,3]dioxol-5-yl)-N-(1-(5-(hydroxymethyl)thiazol-2-yl)-2-(methylamino)ethyl)-1H-pyrrole-2-carboxamide], for which the CC50 in data set [4] is 153 ± 11.5 µM; in data set [6] it was 173 ± 8 µM. Further, the IC50 in data set [5] is 9.32 ± 2.8 µM.

Turning to `Cc1nc(C(CN)NC(=O)c2ccc(-c3ccc4c(c3)OCO4)[nH]2)sc1CO` (stereo not drawn) [NBD-14111, N-(2-amino-1-(5-(hydroxymethyl)-4-methylthiazol-2-yl)ethyl)-5-(benzo[d][1,3]dioxol-5-yl)-1H-pyrrole-2-carboxamide], the figures for the CC50 in data set [4] and in data set [6] were 146 ± 5.2 µM and 170 ± 9 µM, respectively. Further, the “antiviral activity (in words)” value in data set [2] is “lost its antiviral activity”. For the same compound, the IC50 in data set [5] was 9.8 ± 4.8 µM.

For `NCC(NC(=O)c1ccc(-c2ccc3c(c2)OCO3)[nH]1)c1nc(CO)cs1` (stereo not drawn) [NBD-14173, N-(2-amino-1-(4-(hydroxymethyl)thiazol-2-yl)ethyl)-5-(benzo[d][1,3]dioxol-5-yl)-1H-pyrrole-2-carboxamide], the CC50 in data set [4] amounted to 105 ± 7.9 µM; in data set [6], 176 ± 4.3 µM. Further, in data set [5], the IC50 amounted to 8.2 ± 2.7 µM.

`NCC(NC(=O)c1ccc(-c2ccc3c(c2)OCO3)[nH]1)c1nc(CO)cs1` (stereo not drawn) [NBD-14172, N-(2-amino-1-(4-(hydroxymethyl)thiazol-2-yl)ethyl)-5-(benzo[d][1,3]dioxol-5-yl)-1H-pyrrole-2-carboxamide] showed a CC50 at 3 days in data set [1] of 92.3 ± 2.9 µM. In data set [2], the “improvement in antiviral activity/potency compared with NBD-14123” value is given as “about 1.5 fold”. Moreover, in data set [5], the IC50 is 2.4 ± 0.3 µM. The same compound registered a CC50 at 4 days in data set [3] of 156 ± 14.3 µM.

`CNCC(NC(=O)c1ccc(-c2ccc3c(c2)OCO3)[nH]1)c1nc(CO)cs1` (stereo not drawn) [NBD-14158, 5-(benzo[d][1,3]dioxol-5-yl)-N-(1-(4-(hydroxymethyl)thiazol-2-yl)-2-(methylamino)ethyl)-1H-pyrrole-2-carboxamide]: the CC50 at 3 days in data set [1] turned out to be 157 ± 7.8 µM. Also, the IC50 in data set [5] is 9.5 ± 0.5 µM. Also, in data set [3], the CC50 at 4 days was found to be 192 ± 4.2 µM.

For `CNCC(NC(=O)c1ccc(-c2ccc3c(c2)OCO3)[nH]1)c1ncc(CO)s1` (stereo not drawn) [NBD-14139, 5-(benzo[d][1,3]dioxol-5-yl)-N-(1-(5-(hydroxymethyl)thiazol-2-yl)-2-(methylamino)ethyl)-1H-pyrrole-2-carboxamide], the CC50 at 3 days in data set [1] was determined as 149 ± 11.3 µM. The same compound displayed a CC50 at 4 days in data set [3] of 178 ± 8 µM.

As to `NCC(NC(=O)c1ccc(-c2ccc3nsnc3c2)[nH]1)c1ncc(CO)s1` (stereo not drawn) [NBD-14126, N-(2-amino-1-(5-(hydroxymethyl)thiazol-2-yl)ethyl)-5-(benzo[c][1,2,5]thiadiazol-5-yl)-1H-pyrrole-2-carboxamide], the 50% cytotoxic concentration (CC50) at 3 days in data set [1] stood at 79.9 ± 1 µM. Also, the “cytotoxicity higher compared with the parent compounds” value in data set [4] is listed as “about 1.5 fold”. Besides, the “improvement in antiviral activity compared with NBD-14122” value in data set [2] is reported as “about 2.8 fold”. For the same compound, half-maximal cytotoxicity in data set [3] (CC50 at 4 days) was put at 117 ± 4.3 µM.

Turning to `NCC(NC(=O)c1ccc(-c2ccc3c(c2)OC(F)(F)O3)[nH]1)c1ncc(CO)s1` (stereo not drawn) [NBD-14145, N-(2-amino-1-(5-(hydroxymethyl)thiazol-2-yl)ethyl)-5-(2,2-difluorobenzo[d][1,3]dioxol-5-yl)-1H-pyrrole-2-carboxamide], in data set [4], the cytotoxicity became higher is ~ 3.9 fold and the CC50 was determined as 38.7 ± 1.3 µM. The “improvement in antiviral activity” value in data set [2] (di-fluoro at position 2 of 1,3-benzodioxole, comparator not stated) was ~ 1.7 fold. Further, in data set [5], the IC50 amounted to 3.1 ± 0.5 µM. For the same compound, the CC50 in data set [6] amounted to 41 ± 2.7 µM.

Regarding `CC(C)(N)C(NC(=O)c1ccc(-c2ccc3c(c2)OCO3)[nH]1)c1ncc(CO)s1` (stereo not drawn) [NBD-14119, N-(2-amino-1-(5-(hydroxymethyl)thiazol-2-yl)-2-methylpropyl)-5-(benzo[d][1,3]dioxol-5-yl)-1H-pyrrole-2-carboxamide], the CC50 was found to be 69.2 ± 3.8 µM in data set [4] and 106 ± 4.4 µM in data set [6]. For the same compound, the “improvement in antiviral activity/potency compared with NBD-14123” value in data set [2] is ~ 2.3 fold. Moreover, the IC50 in data set [5] came out at 2.8 ± 0.9 µM.

Regarding `Cc1nc(C(CN)NC(=O)C(=O)Nc2ccc3c(c2)OCO3)sc1CO` (stereo not drawn) [NBD-14108, N1-(2-amino-1-(5-(hydroxymethyl)-4-methylthiazol-2-yl)ethyl)-N2-(benzo[d][1,3]dioxol-5-yl)oxalamide], the CC50 at 3 days in data set [1] was at least 750 µM. In addition, the “antiviral activity (in words)” value in data set [2] is “completely lost”. The compound further registered a CC50 at 4 days in data set [3] of at least 650 µM.

`CC1(C)CC(NC(=O)C(=O)Nc2ccc(Cl)cc2)CC(C)(C)N1` [NBD-556, reference compound] registered an IC50 in data set [7] (HIV-1 Reverse Transcriptase, mean ± SD, n=3) above 300 µM. For the same compound, in data set [7] (at 300 μM), the “activity against HIV-1 RT” value is on record as “no activity”.

Regarding `CC1(C)Oc2ccc(-c3ccc(C(=O)NC(CN)c4ncc(CO)s4)[nH]3)cc2O1` (stereo not drawn) [NBD-14134, N-(2-amino-1-(5-(hydroxymethyl)thiazol-2-yl)ethyl)-5-(2,2-dimethylbenzo[d][1,3]dioxol-5-yl)-1H-pyrrole-2-carboxamide], the CC50 in data set [4] was 61.1 ± 1.4 µM; in data set [6], 89.3 ± 1.3 µM. The “antiviral activity (in words)” value in data set [2] is recorded as “lost their antiviral potency”. The IC50 in data set [5] stood at 15.3 ± 5 µM.

Turning to `NCC(NC(=O)c1ccc(-c2ccc3nsnc3c2)[nH]1)c1ncc(CO)s1` (stereo not drawn) [NBD-14127, N-(2-amino-1-(5-(hydroxymethyl)thiazol-2-yl)ethyl)-5-(benzo[c][1,2,5]thiadiazol-5-yl)-1H-pyrrole-2-carboxamide], in data set [4], the “cytotoxicity higher compared with the parent compounds” value is on record as “about 1.5 fold” and the CC50 stood at 96.7 ± 2.9 µM. Besides, the “improvement in antiviral activity/potency compared with NBD-14123” value in data set [2] is on record as ~ 1.6 fold. Moreover, the IC50 in data set [5] was 7.3 ± 1.5 µM. Also, the CC50 in data set [6] turned out to be 137 ± 1.5 µM.

`CC(C)(N)C(NC(=O)c1ccc(-c2ccc3c(c2)OCO3)[nH]1)c1ncc(CO)s1` (stereo not drawn) [NBD-14118, N-(2-amino-1-(5-(hydroxymethyl)thiazol-2-yl)-2-methylpropyl)-5-(benzo[d][1,3]dioxol-5-yl)-1H-pyrrole-2-carboxamide] registered a CC50 at 3 days in data set [1] of 64.3 ± 3.7 µM. This compound also registered a CC50 at 4 days in data set [3] of 123 ± 10.5 µM.

`Cc1nc(C(NC(=O)c2ccc(-c3ccc4c(c3)OCO4)[nH]2)C(C)(C)N)sc1CO` (stereo not drawn) [NBD-14116, N-(2-amino-1-(5-(hydroxymethyl)-4-methylthiazol-2-yl)-2-methylpropyl)-5-(benzo[d][1,3]dioxol-5-yl)-1H-pyrrole-2-carboxamide] registered a CC50 at 3 days in data set [1] of 55.2 ± 5.4 µM. In data set [3], this compound showed a CC50 at 4 days of 98 ± 2.2 µM.

In data set [1], `NCC(NC(=O)c1ccc(-c2ccc3c(c2)OC(F)(F)O3)[nH]1)c1ncc(CO)s1` (stereo not drawn) [NBD-14144, N-(2-amino-1-(5-(hydroxymethyl)thiazol-2-yl)ethyl)-5-(2,2-difluorobenzo[d][1,3]dioxol-5-yl)-1H-pyrrole-2-carboxamide] registered a CC50 at 3 days of 37.9 ± 2.4 µM. Also, in data set [4], the cytotoxicity became higher is recorded as ~ 3.9 fold. In addition, in data set [2], the “improvement in antiviral activity compared with NBD-14122” value was ~ 4.5 fold. Moreover, in data set [3], the CC50 at 4 days amounted to 43.4 ± 3.6 µM.
